Measurements as given in PubChem BioAssay AID180 (DTP/NCI, 2004).
Where “and” joins values, the source holds several entries; their conditions need not be identical. Identical values can stand only once.

System: BDF1 mice, Adenocarcinoma 755 s.c., tumor weight T/C
Experiment: NCI In Vivo Anticancer Drug Screen. Data for tumor model Adenocarcinoma 755 (subcutaneous) in B6D2F1 (BDF1) mice
Settings: endpoint: mean tumor weight, higher = larger tumour
Procedure, shortened: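 Tumor-bearing mice receive test compound while controls get vehicle alone. Antitumor effect is scored from survival or tumor dimensions as a T/C quotient.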

Compound: [I][Hg][CH2]C1COC([CH2][Hg][I])CO1 (centres undefined)
- T/C (dose: 0.8 mg/kg/injection, schedule: Q#A X022 (ip), vehicle: carboxymethylcellulose (CMC)): 96 % of control
- T/C (dose: 1.25 mg/kg/injection, schedule: Q#A X022 (ip), vehicle: carboxymethylcellulose (CMC)): 43 % of control
- T/C (dose: 1.9 mg/kg/injection, schedule: Q#A X022 (ip), vehicle: carboxymethylcellulose (CMC)): 84 % of control
- T/C (dose: 2.85 mg/kg/injection, schedule: Q#A X022 (ip), vehicle: carboxymethylcellulose (CMC)): 35 % of control and 50 % of control
- T/C (dose: 2.9 mg/kg/injection, schedule: Q01DX006 (iv), vehicle: carboxymethylcellulose (CMC)): 154 % of control
- T/C (dose: 4.3 mg/kg/injection, schedule: Q#A X022 (ip), vehicle: carboxymethylcellulose (CMC)): 36 % of control
- T/C (dose: 4.4 mg/kg/injection, schedule: Q01DX006 (iv), vehicle: carboxymethylcellulose (CMC)): 90 % of control
- T/C (dose: 6.5 mg/kg/injection, schedule: Q#A X022 (ip), vehicle: carboxymethylcellulose (CMC)): 23 % of control
- T/C (dose: 6.6 mg/kg/injection, schedule: Q01DX006 (iv), vehicle: carboxymethylcellulose (CMC)): 95 % of control
- T/C (dose: 10.0 mg/kg/injection, schedule: Q01DX006 (iv), vehicle: carboxymethylcellulose (CMC)): 78 % of control
- T/C (dose: 22.0 mg/kg/injection, schedule: Q03DX004 (ip), vehicle: carboxymethylcellulose (CMC)): 62 % of control
- T/C (dose: 24.0 mg/kg/injection, schedule: Q01DX011 (oral), vehicle: carboxymethylcellulose (CMC)): 71 % of control
- T/C (dose: 25.0 mg/kg/injection, schedule: Q01DX011 (oral), vehicle: methylcellulose (MC)): 75 % of control
- T/C (dose: 35.0 mg/kg/injection, schedule: Q01DX001 (ip), vehicle: carboxymethylcellulose (CMC)): 96 % of control
- T/C (dose: 35.0 mg/kg/injection, schedule: Q01DX011 (oral), vehicle: carboxymethylcellulose (CMC)): 92 % of control
- T/C (dose: 35.0 mg/kg/injection, schedule: Q03DX004 (ip), vehicle: carboxymethylcellulose (CMC)): 69 % of control
- T/C (dose: 35.0 mg/kg/injection, schedule: Q07DX002 (ip), vehicle: carboxymethylcellulose (CMC)): 77 % of control
- T/C (dose: 50.0 mg/kg/injection, schedule: Q01DX011 (oral), vehicle: methylcellulose (MC)): 86 % of control
- T/C (dose: 50.0 mg/kg/injection, schedule: Q03DX004 (ip), vehicle: carboxymethylcellulose (CMC)): 51 % of control
- T/C (dose: 55.0 mg/kg/injection, schedule: Q01DX011 (oral), vehicle: carboxymethylcellulose (CMC)): 81 % of control
- T/C (dose: 60.0 mg/kg/injection, schedule: Q01DX011 (ip), vehicle: methylcellulose (MC)): 15 % of control
- T/C (dose: 80.0 mg/kg/injection, schedule: Q01DX011 (oral), vehicle: carboxymethylcellulose (CMC)): 78 % of control
- T/C (dose: 85.0 mg/kg/injection, schedule: Q01DX001 (ip), vehicle: carboxymethylcellulose (CMC)): 89 % of control
- T/C (dose: 100.0 mg/kg/injection, schedule: Q01DX011 (oral), vehicle: methylcellulose (MC)): 74 % of control
- T/C (dose: 120.0 mg/kg/injection, schedule: Q01DX011 (ip), vehicle: methylcellulose (MC)): 60 % of control
- T/C (dose: 160.0 mg/kg/injection, schedule: Q01DX011 (im), vehicle: carboxymethylcellulose (CMC)): 36 % of control
- T/C (dose: 160.0 mg/kg/injection, schedule: Q01DX011 (sc), vehicle: carboxymethylcellulose (CMC)): 42 % of control
- T/C (dose: 240.0 mg/kg/injection, schedule: Q01DX011 (sc), vehicle: carboxymethylcellulose (CMC)): 8 % of control
- T/C (dose: 360.0 mg/kg/injection, schedule: Q01DX011 (im), vehicle: carboxymethylcellulose (CMC)): 10 % of control

Compound: COC(=O)C1C2CC3c4[nH]c5cc(OC)ccc5c4CCN3CC2CC(OC(=O)c2cc(OC)c(OC)c(OC)c2)C1OC (centres undefined)
- T/C (dose: 0.5 mg/kg/injection, schedule: Q01DX011 (ip), vehicle: saline): 109 % of control
- T/C (dose: 2.0 mg/kg/injection, schedule: Q01DX011 (ip), vehicle: saline): 101 % of control

Compound: C=CCc1c[nH]c(=O)[nH]c1=O
- T/C (dose: 67.5 mg/kg/injection, schedule: Q01DX011 (ip), vehicle: saline): 99 % of control
- T/C (dose: 125.0 mg/kg/injection, schedule: Q01DX011 (ip), vehicle: saline): 78 % of control
- T/C (dose: 250.0 mg/kg/injection, schedule: Q01DX011 (ip), vehicle: saline): 72 % of control

Compound: CC[C@H](c1ccc(O)cc1)[C@@H](CC)c1ccc(O)cc1
- T/C (dose: 55.0 mg/kg/injection, schedule: Q01DX011 (sc), vehicle: steriod suspending solution): 44 % of control

Compound: CC12CCC(=O)C=C1CCC1C2C(O)CC2(C)C(O)CCC12 (centres undefined)
- T/C (dose: 25.0 mg/kg/injection, schedule: Q01DX011 (sc), vehicle: steriod suspending solution): 73 % of control
- T/C (dose: 100.0 mg/kg/injection, schedule: Q01DX011 (sc), vehicle: steriod suspending solution): 97 % of control
- T/C (dose: 300.0 mg/kg/injection, schedule: Q01DX011 (sc), vehicle: steriod suspending solution): 84 % of control

Compound: CSc1cc(NCc2ccccc2)nc(N)n1
- T/C (dose: 25.0 mg/kg/injection, schedule: Q01DX011 (ip), vehicle: methylcellulose (MC)): 85 % of control
- T/C (dose: 75.0 mg/kg/injection, schedule: Q01DX011 (ip), vehicle: methylcellulose (MC)): 65 % of control

Compound: O=S1(=O)CCCO1
- T/C (dose: 80.0 mg/kg/injection, schedule: Q01DX011 (ip), vehicle: carboxymethylcellulose (CMC)): 32 % of control and 33 % of control

Compound: O=S(=O)(F)c1nc(Cl)c2[nH]cnc2n1
- T/C (dose: 6.2 mg/kg/injection, schedule: Q01DX011 (ip), vehicle: methylcellulose (MC)): 117 % of control

Compound: CC[C@]1(O)C[C@H]2CN(CCc3c([nH]c4ccccc34)[C@@](C(=O)OC)(c3cc4c(cc3OC)N(C)[C@H]3[C@@](O)(C(=O)OC)[C@H](OC(C)=O)[C@]5(CC)C=CCN6CC[C@]43[C@@H]65)C2)C1
- T/C (dose: 0.05 mg/kg/injection, schedule: Q01DX011 (ip), vehicle: carboxymethylcellulose (CMC)): 68 % of control and 76 % of control
- T/C (dose: 0.1 mg/kg/injection, schedule: Q01DX011 (ip), vehicle: carboxymethylcellulose (CMC)): 94 % of control and 87 % of control

Compound: Nc1cnc(=O)[nH]c1N
- T/C (dose: 30.0 mg/kg/injection, schedule: Q01DX011 (ip), vehicle: carboxymethylcellulose (CMC)): 92 % of control
- T/C (dose: 60.0 mg/kg/injection, schedule: Q01DX011 (ip), vehicle: carboxymethylcellulose (CMC)): 92 % of control
- T/C (dose: 120.0 mg/kg/injection, schedule: Q01DX011 (ip), vehicle: carboxymethylcellulose (CMC)): 122 % of control
- T/C (dose: 400.0 mg/kg/injection, schedule: Q01DX011 (ip), vehicle: carboxymethylcellulose (CMC)): 78 % of control
- T/C (dose: 600.0 mg/kg/injection, schedule: Q01DX011 (ip), vehicle: carboxymethylcellulose (CMC)): 96 % of control

Compound: CN(C)c1nc(N)c2ncn(C3OC(CO)C(O)C3O)c2n1 (centres undefined)
- T/C (dose: 31.0 mg/kg/injection, schedule: Q01DX011 (ip), vehicle: methylcellulose (MC)): 80 % of control
- T/C (dose: 125.0 mg/kg/injection, schedule: Q01DX011 (ip), vehicle: methylcellulose (MC)): 74 % of control

Compound: NC(C=O)C(O)C(O)C(O)CO (centres undefined)
- T/C (dose: 250.0 mg/kg/injection, schedule: Q01DX011 (ip), vehicle: carboxymethylcellulose (CMC)): 104 % of control and 204 % of control
- T/C (dose: 500.0 mg/kg/injection, schedule: Q01DX011 (ip), vehicle: carboxymethylcellulose (CMC)): 225 % of control
- T/C (dose: 1000.0 mg/kg/injection, schedule: Q01DX011 (ip), vehicle: carboxymethylcellulose (CMC)): 102 % of control and 110 % of control
- T/C (dose: 2000.0 mg/kg/injection, schedule: Q01DX011 (ip), vehicle: methylcellulose (MC)): 89 % of control
- T/C (dose: 2500.0 mg/kg/injection, schedule: Q01DX011 (ip), vehicle: methylcellulose (MC)): 72 % of control

Compound: Nc1nc(=S)c2ncn(C3OC(COC(=O)c4ccc(Cl)cc4)C(OC(=O)c4ccc(Cl)cc4)C3OC(=O)c3ccc(Cl)cc3)c2[nH]1 (centres undefined)
- T/C (dose: 0.88 mg/kg/injection, schedule: Q01DX011 (ip), vehicle: carboxymethylcellulose (CMC)): 94 % of control
- T/C (dose: 1.75 mg/kg/injection, schedule: Q01DX011 (ip), vehicle: carboxymethylcellulose (CMC)): 65 % of control
- T/C (dose: 3.5 mg/kg/injection, schedule: Q01DX011 (ip), vehicle: carboxymethylcellulose (CMC)): 102 % of control
- T/C (dose: 6.0 mg/kg/injection, schedule: Q01DX011 (ip), vehicle: carboxymethylcellulose (CMC)): 72 % of control
- T/C (dose: 10.0 mg/kg/injection, schedule: Q01DX011 (ip), vehicle: carboxymethylcellulose (CMC)): 6 % of control
- T/C (dose: 12.0 mg/kg/injection, schedule: Q01DX011 (ip), vehicle: carboxymethylcellulose (CMC)): 23 % of control
- T/C (dose: 16.0 mg/kg/injection, schedule: Q01DX011 (ip), vehicle: carboxymethylcellulose (CMC)): 1 % of control
- T/C (dose: 50.0 mg/kg/injection, schedule: Q01DX011 (ip), vehicle: carboxymethylcellulose (CMC)): 2 % of control and 3 % of control
